The results in this text go back to patent US20240181001A1, “TREATMENT” (Queen Mary University London, priority 2021, published 2024).

Entries after “also recorded” stand apart in the source; their conditions may differ.

The subject of one data set is KP tumors. Format: in vivo, mouse.
The subject of another data set is KP tumor burdened lung. Kind of data set: Flow cytometry of lungs bearing KP tumors. Format: in vivo, mouse. The conditions noted are these: cisplatin treatment. As to the method: Tumors were minced and incubated at 37° C. for 20 min in an enzymatic cocktail containing DNase (0.5 mg/ml, Sigma). Liberase (2 mg/ml, Sigma) in HBSS (Sigma) was used to make a single cell suspension for pancreatic tumors. For breast tumors, collagenase/dispase (1 mg/ml, Sigma) in PBS, was used to make a single cell suspension. Cells were passed through a […] filter (BD Biosciences), washed in PBS supplemented with 2% foetal bovine serum and 2 mM EDTA, counted and used immediately for flow cytometry. Before cells were stained with specific antibodies, nonspecific binding sites were blocked with Fcγ R III/II TruStain fcX (93, Biolegend). Staining was performed in PBS supplemented with 2% foetal bovine serum and 2 mM EDTA. The following fluorochrome-conjugated antibodies were used: anti-CD45 (30-F11), anti-CD3 (145-2C11), anti-CD4 (L3T4), anti-CD8 (53-6.7), anti-CD69 (H1.2F3), anti-CD44 (IM7), anti-CD62L (MEL-14), anti-CD19 (6D5), anti-CD11b (M1/70), anti-F4/80 (BM8) from Biolegend; anti-PD1 (RMP1-30), anti-Gr1 (RB6-8C5) and anti-Ly6C (HK1.4) from eBioscience. Fixable viability dye (FVD) (eBioscience) was used to discriminate between live and dead cells. Acquisition and analyses were performed on a BD LSRII system using BD […] software (BD Biosciences). The percentage of cells were analysed using FlowJo software (version 10.0.8 tree Star). Dead cells were excluded from the analysis on the basis of FVD and SSC gating. Cell doublets were excluded from the analysis by gating for FSC area versus FSC width. CD45+ cells were used to include leukocytes only in the data analysis.

The test system of a further data set is KP lung tumor cells. As to the kind of experiment: Cell survival assay (MTS), KP cells. The conditions noted are these: increasing concentrations of cisplatin alone or with 2nM 29P. Format: cell-based, mouse. As to the method: The lung adenocarcinoma cell line KP53 F1 was derived from lung tumors of C57BL/6 KP mice and was kindly provided by Dr. S A. Quezada, UCL Cancer Centre (University College London, UK).
(§1) A549 or KP cell survival was analyzed using the CellTiter96® Aqueous One Solution Reagent (Promega #G3582) according to the manufacturer's instructions. Briefly, 1000 cells were seeded into 96-well plated. Cells were treated the following day and the solution reagent was added after 72 hours of treatment. Plates were read using a wavelength of 490 nm.

In data set [1] the test system is human lung adenocarcinoma (A549) cells. Kind of data set: Cell survival assay (MTS), A549 cells. Type of data set: cell-based. Conditions: increasing concentrations of cisplatin alone or with 2nM 29P. Here is the method:
A549 and LLC cells were purchased from ATCC. Mouse Lung Endothelial cells (EC) were obtained and cultured as previously described (34).
as §1

A short description of data set [2]: Side effects in C57/BL6 mice: body weight, lymphocytes, creatinine. The conditions noted are these: Cis^3/anti-PD-1/anti-CTLA-4 and 29P, compared with Cis^6/anti-PD-1/anti-CTLA-4, placebo or single agent 29P. Type of data set: in vivo, mouse. As to the method:
FIG. 3 illustrates that 29P treatment sensitizes KP tumors to current immunotherapies and chemotherapies. […] (A, B, E) Representative images of hematoxylin-eosin stained lungs and quantification of number of tumor foci and tumor burden. […] (D) C57/BL6 mice were treated with Placebo, 29P, Cis^6/α-PD-1+α-CTLA-4 and Cis^3/α-PD-1+α-CTLA-4/29P. […] (F) Representative images of hematoxylin-eosin stained lungs (left) and quantification of mouse body weights and tumor burden (right). N.S. Not significant/p>0.05, *p<0.05, **p<0.01, ***p<0.001. (A,B,D-F) ordinary One-way ANOVA with Tukey's multiple comparison test, for not normally distributed data Kruskal-Wallis test with Dunn's multiple comparison test, (C) Mantel-Cox test, n=5-8 per treatment. Scale bars: 5 mm in H&E staining.

As to `N.N.[Cl][Pt][Cl]` [cisplatin], the anti-tumor effect result in the data set with KP tumors (KP mice, Cis^6 (cisplatin 6 mg/kg) alone) is given as “clear anti-tumor effect”. Also, in the data set on KP tumor burdened lung, the “T cell (CD4+ and CD8+) numbers” value is “increased”; the “myeloid cell (Gr1+, Natural killer cells, dendritic cells, monocytes) numbers” value is “increased”; the tumor associated macrophages result was “a reduction”.
For the compound `CCCCCCOC(=O)N=C(NCCC[C@@H]1NC(=O)[C@@H](C(C)C)N(C)C(=O)[C@H](C)N(C)C(=O)[C@H](C)NC(=O)[C@H](CC(=O)OC)NC(=O)CNC1=O)NC(=O)OCCCCCC` [29P, c(*vR(Hoc)2GD(OMe)A*A)], the “weight loss side effect” value in the data set with KP tumors (mouse, in vivo) is “without apparent adverse weight loss side effects”. The “cisplatin cytotoxicity with 29P addition (MTS cell viability)” value in the data set on KP lung tumor cells was “independent of 29P addition”. Further, the “cisplatin cytotoxicity with 29P addition (MTS cell viability)” value in data set [1] is reported as “independent of 29P addition”. Also, in data set [2], the body weight result is listed as “restored; also recorded: significantly improved parameters”, the creatinine levels result was “restored; also recorded: significantly improved parameters” and the lymphocyte numbers entry is “restored; also recorded: significantly improved parameters”.
